Patent publication US8318424B2, “High-throughput RNA structure analysis” (The University of North Carolina at Chapel Hill, priority 2006, dated 2012)

Legend:
[1] = Solubility of reagent stock in DMSO; format: physicochemical; settings: organic solvent or mixture; 10× stock in DMSO; read-out: stock concentration limit due to solubility of the reagent
Procedure: The concentration of this solution can vary with RNA length. For RNA reads of 100, 200 and 300 nucleotides, 10×NMIA concentrations of 130, 65 and 30 mM, can be used.

retroviral membrane = experiment: NMIA modification of genomic RNA inside HIV-1 viral particles
Procedure: The structure of HIV-1 genomic RNA inside infectious virions was analyzed by treating viral particles with NMIA and then extracting and processing the modified RNA (the in virio state). Numerous reproducible differences between the ex virio and in virio states were observed that report virion-specific RNA structures and RNA-protein interactions.
Concentrated samples of either purified viral particles or particles treated with AT-2 (500 μL) in NMIA reaction buffer were treated with NMIA (50 μL, 100 mM) or neat DMSO (50 μL) for 50 minutes at 37° C. The virus particle production, AT-2 treatment, and NMIA modification steps were performed as a single continuous process and without intermediate storage steps.

pAp-ethyl = experiment: 2′-O-adduct formation with [32P]-labeled pAp-ethyl; settings: for change in rate of reaction with pAp-ethyl from 0 to 20 mM Mg2+: 0 to 20 mM Mg2+ (FIG. 6)
Procedure: (§1) Hydrolysis was followed by adding (1.5 mM NMIA or 2.0 mM 1M7 in 300 μL DMSO) reagent to 1.1× buffer (2.7 mL, 6.7 mM MgCl2, 111 mM NaCl, 111 mM HEPES (pH 8.0)) equilibrated at 37° C. in a cuvette. Pseudo-first-order rates were obtained by monitoring the absorbance of the hydrolysis product (at 360 nm for 2-methylaminobenzoate and 430 nm for 2-methylamino-4-nitrobenzoate). Rates of adduct formation for [^32P]-labeled pAp-ethyl (10,000 cpm/μL) were obtained by adding 10% (v/v) reagent (5 mM final NMIA or 1M7 in DMSO) to 1.1× reaction buffer, quenching the reaction with 1 vol 250 mM dithiothreitol, resolving by gel electrophoresis (30% polyacrylamide; 29:1 acrylamide:bisacrylamide; 0.4 mm×28.5 cm×23 cm; 30 W; 45 minutes), and quantifying by phosphorimaging. Reaction rates were obtained using an equation that accounts for parallel reaction of NMIA or 1M7 by 2′-O-adduct formation (kadduct) and by hydrolysis (khydrolysis): fraction product=1−exp[(kadduct[reagent]/khydrolysis)(e^−(khydrolysis)t−1)]. Synthesis of Bacillus subtilis RNase P RNA
The ability of each compound to react with 3′-phosphoethyl-5′-adenosine monophosphate (pAp-ethyl) was then evaluated. pAp-ethyl contains a 2′-hydroxyl and 3′-phosphodiester monoanion.

[2] = Reagent hydrolysis followed by UV absorbance of the aminobenzoate product; format: physicochemical
Procedure: One (1) μL NMIA in DMSO was added to the (+) NMIA tube and 1 μL neat DMSO was added to the (−) NMIA tube. The tubes were then mixed well. The reaction was incubated for 5 NMIA hydrolysis half-lives. To estimate the NMIA half-life between 15° C. and 75° C., the following equation was used: half life(minutes)=360×exp[−0.102×temperature(° C.)]. […] Thus, at 37° C., the reaction was incubated for about 45 minutes.
as §1
The reagent hydrolysis was monitored as the increase in UV absorbance of the aminobenzoate products. […] In contrast, NMIA required over 20 minutes to react to completion (FIG. 5).

NCp7-RNA interactions = target: T1, NCp7-RNA interactions (Human immunodeficiency virus type 1 group M subtype B, UniProt P12493); experiment: AT-2 treatment of HIV-1 virions analyzed by hSHAPE; settings: in virio compared with AT-2 treated virions
T1 construct: expressed in transfected cells; host or cells: 293T cells cotransfected with pNL4-3 and pHCMV-G; the protein sits in the released virus particles
Text: The most prominent protein ligand for genomic RNA in mature HIV virions is the nucleocapsid protein. The nucleocapsid protein (NCp7) contains two highly conserved zinc-knuckle motifs comprised of cysteine and histidine residues that coordinate zinc ions and bind preferentially to guanosine. These compact motifs are flanked by positively charged residues that interact at adjacent RNA elements. Zinc ejecting agents such as 2,2′-dithioldipyridine (or AT-2) quantitatively disrupt interactions between the zinc ion and its cysteine ligands to compromise NCp7-RNA interactions, but leave the surface of the virus particle intact. Nucleocapsid-RNA interactions were disrupted in situ by treating virions with AT-2. The resulting genomic RNA was analyzed using hSHAPE.
Aldrithiol-2 (AT-2, systematic name 2,2′-dithiodipyridine; 0.5 M in DMSO, 2.0 mL) or DMSO (2.0 mL) was added to 1.0 L virus supernatant and incubated overnight at 4° C. Virus particles from the (+) and (−) AT-2 experiments were pelleted separately by centrifugation (110,000 g, 4° C., 1.5 hours) through a 20% (w/v) sucrose cushion in phosphate buffered saline. Pellets were resuspended in 1.0 mL NMIA reaction buffer (50 mM Hepes (pH 8), 200 mM NaCl, 0.1 mM EDTA, and 10% fetal bovine serum). […]

SMILES	solubility [1] [mM]	passage across the retroviral membrane (retroviral membrane)	change in rate of reaction with pAp-ethyl from 0 to 20 mM Mg2+ (pAp-ethyl)	time required to react to completion ([2]; 37° C., pH 8.0 buffer)	half-life ([2]; pH 8, 37° C., from half life = 360×exp[−0.102×temperature], read-out: NMIA hydrolysis half-life) [min]	specificity of the effect of AT-2 treatment on SHAPE reactivity of genomic RNA (NCp7-RNA interactions)	increase in rates of hydrolysis and of 2′-hydroxyl acylation relative to NMIA (pAp-ethyl) [fold]	rate of reaction with pAp-ethyl, compared with NMIA (pAp-ethyl; 5 mM reagent)	time until reaction is complete ([2]; 37° C., pH 8.0 buffer)	half-life at 0.2 mM ([2]; HEPES buffer with 10% DMSO, 37° C., pH 8.0 buffer, 10% DMSO) [min]	dependence of hydrolysis on Mg2+ concentration ([2]; control experiments)
Cn1c(=O)oc(=O)c2ccccc21 [NMIA, N-methylisatoic anhydride]	≤ 130	readily crosses the retroviral membrane	greater than 2 fold	over 20 minutes	8.3	–	–	–	–	–	–
c1ccc(SSc2ccccn2)nc1 [AT-2, 2,2′-dithiodipyridine]	–	–	–	–	–	highly specific	–	–	–	–	–
Cn1c(=O)oc(=O)c2ccc([N+](=O)[O-])cc21 [1M7, 1-methyl-7-nitroisatoic anhydride]	–	–	negligible	–	–	–	20	significantly more rapidly	about 70 seconds	0.233	independent of Mg^2+ concentration
